In patent US20220348590A1, “CYCLOOXYGENASE-2 INHIBITORS AND USES THEREOF” (The Board Institute, Inc., priority 2019, published 2022):
Entries after “also recorded” stand apart in the source; their conditions may differ.

Tests used:
[1] = target: T1, human recombinant COX2 (hCOX2) (UniProt P35354); experiment: LCMS-based COX2 enzymatic inhibition assay (PGE2 quantification); assay type: biochemical; set-up: improvement in potency; other: COX2 potency relative to MC1 / earlier ligand; comparator not always stated; other: vs MC1 (MC-1)
T1 sequence (P35354 1-604): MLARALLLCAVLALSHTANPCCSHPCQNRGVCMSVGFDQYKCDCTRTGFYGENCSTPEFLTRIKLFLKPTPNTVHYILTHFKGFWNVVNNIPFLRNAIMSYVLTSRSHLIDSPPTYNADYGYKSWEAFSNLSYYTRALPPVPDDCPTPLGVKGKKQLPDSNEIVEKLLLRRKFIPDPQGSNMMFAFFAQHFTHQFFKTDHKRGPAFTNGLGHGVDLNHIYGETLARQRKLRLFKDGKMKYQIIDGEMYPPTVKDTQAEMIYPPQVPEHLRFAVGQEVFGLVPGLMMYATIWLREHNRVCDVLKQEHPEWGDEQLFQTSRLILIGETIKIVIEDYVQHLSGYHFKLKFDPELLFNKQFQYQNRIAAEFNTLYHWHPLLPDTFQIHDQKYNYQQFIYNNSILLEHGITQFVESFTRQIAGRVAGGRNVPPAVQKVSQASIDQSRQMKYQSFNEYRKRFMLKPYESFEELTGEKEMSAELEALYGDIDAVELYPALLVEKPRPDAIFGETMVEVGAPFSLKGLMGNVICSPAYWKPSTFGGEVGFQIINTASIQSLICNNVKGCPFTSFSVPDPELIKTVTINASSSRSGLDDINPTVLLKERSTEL
Procedure: We have adapted a previously reported cyclooxygenase enzymatic assay utilizing LCMS quantification of PGE2 as the product of COX-1 and COX2 catalyzed conversion of arachidonic acid to evaluate the binding properties of newly synthesized ligands [Cao, 2011]. These optimized and miniaturized (384-well plates) LCMS-based COX-1 and COX2 enzymatic assays enabled us to quickly evaluate newly synthesized ligands for COX2 binding affinity and selectivity vs COX-1. Using a shorter ligand-enzyme incubation time in the LCMS assay (2 minutes vs 10 minutes) also permitted us to prioritize ligands with faster binding kinetics. Considering the relatively slow on-rate kinetics of known coxibs, due to their 3-step binding mechanism [Marnett, 2009], we believe that optimizing this critical parameter will be key to the successful development of a COX2 PET tracer. Using these enzymatic assays, we have evaluated>200 newly synthesized ligands against COX2 and >20 ligands against COX-1. Another critical property necessary for a good PET radiotracer is to have low non-specific binding (NSB) to increase the free fraction and maximize the signal to noise ratio. This property can be evaluated using in-vitro protein binding assays, and we have now evaluated>50 newly synthesized ligands in mouse, rat and human plasma protein binding (PPB) assays as well as >15 ligands in a mouse brain protein binding (BPB) assay.
Ovine COX-1 (oCOX-1), ovine COX2 (oCOX2), human recombinant COX2 (hCOX2), arachidonic acid, PGE2, d4-PGD2, and […] (labeled with deuterium atoms at positions 3 and 4) were purchased from Cayman Chemicals (Ann Arbor, Mich.). The cofactors (−)epinephrine and hematin, and the COX inhibitors indomethacin, resveratrol and diclofenac were purchased from Sigma-Aldrich (St. Louis, Mo.). Celecoxib was purchased from 3B PharmaChem International (Wuhan, China). All organic solvents were HPLC grade or better and were purchased from Thermo Fisher (Hanover Park, Ill.). Formic acid was purchased from EMD Chemicals (San Diego, Calif.). Purified water was prepared by using a Millipore Milli-Q purification system (Millipore, Billerica, Mass.). All other chemicals and solvents were ACS reagent grade, unless stated otherwise.
In an Eppendorf tube, 146 μL of 100 mM Tris.HCl (pH 8.0) buffer, 2 μL of 100 μM hematin (co-factor) and 10 μL of 40 mM L-epinephrine (co-factor) were mixed at room temperature. […]
The concentration of PGE2 in each sample was measured using LC-MS-MS, and the percent of COX inhibition by each test solution was determined by comparing the amount of PGE2 produced in the experiment with that produced in the negative control incubation. The formation of PGD2 was measured for quality control purposes, since the levels of PGD2 should be proportional to those of PGE2. […]

[2] = Mouse Microsome Stability; assay type: in vitro ADME; settings: mouse microsomes

Row | SMILES | improvement in potency ([1]; COX2 potency relative to MC1 / earlier ligand, comparator not always stated) [fold] | Mouse Microsome Stability % Remaining Avg [2] [%] | potency / binding affinity compared to MC1 ([1]; vs MC1 (MC-1))
1 | CS(=O)(=O)c1ccc(-c2cccc(NCc3ccoc3)n2)cc1 [Compound 47, N-(furan-3-ylmethyl)-6-(4-(methylsulfonyl)phenyl)pyridin-2-amine] | ~4 |  | 
2 | COc1ncc(NCc2cccs2)nc1-c1ccc(S(C)(=O)=O)cc1 [Compound 29] |  | 4.3 | 
3 | CS(=O)(=O)c1ccc(-c2cncc(NCc3cccs3)n2)cc1 [Compound 98] |  | 3 | maintaining potency; also recorded: equivalent binding affinity
